Data: PubChem BioAssay (NCI)
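A five-concentration, 48-hour dose response in 96-well plates underlies each endpoint, interpolated linearly between surrounding concentrations. The concentration for full growth arrest is given as TGI.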

Key:
Experiment in all cases: NCI-60 cell line screen, 48 h
SK-OV-3 ovarian = system: SK-OV-3 ovarian
SW-620 colon = system: SW-620 colon
MOLT-4 leukemia = system: MOLT-4 leukemia
BT-549 breast = system: BT-549 breast
CCRF-CEM leukemia = system: CCRF-CEM leukemia
OVCAR-8 ovarian = system: OVCAR-8 ovarian
MDA-MB-435 = system: MDA-MB-435
SK-MEL-2 melanoma = system: SK-MEL-2 melanoma
MDA-N = system: MDA-N
MALME-3M melanoma = system: MALME-3M melanoma

O=C(O)C(SC1=NNC2(C(=O)N1)c1ccccc1-c1ccccc12)SC1=NNC2(C(=O)N1)c1ccccc1-c1ccccc12
TGI (SK-OV-3 ovarian): > 10 µM
TGI (SW-620 colon): > 10 µM
TGI (MOLT-4 leukemia): > 10 µM
TGI (BT-549 breast): > 10 µM
TGI (CCRF-CEM leukemia): > 10 µM
TGI (OVCAR-8 ovarian): > 10 µM
TGI (MDA-MB-435): > 10 µM
TGI (SK-MEL-2 melanoma): > 10 µM
TGI (MDA-N): > 10 µM
TGI (MALME-3M melanoma): > 10 µM

Nc1nc(Cl)cc(NCC2(CO)CCC(CCc3ccccc3)C2)n1 (stereo not given)
TGI (SK-OV-3 ovarian): 35.1 µM
TGI (SW-620 colon): 36 µM
TGI (MOLT-4 leukemia): 11.7 µM
TGI (BT-549 breast): 30.3 µM
TGI (CCRF-CEM leukemia): 40.1 µM
TGI (OVCAR-8 ovarian): 44 µM
TGI (MDA-MB-435): 28.3 µM
TGI (SK-MEL-2 melanoma): 34.5 µM
TGI (MDA-N): 28.1 µM
TGI (MALME-3M melanoma): 33.3 µM

O=C(CNc1c(Cl)cccc1Cl)NC1C=Cc2ccc(S(=O)(=O)Nc3c(Cl)cccc3Cl)cc2C1=O (stereo not given)
TGI (SK-OV-3 ovarian): > 100 µM
TGI (SW-620 colon): > 100 µM
TGI (MOLT-4 leukemia): > 100 µM
TGI (BT-549 breast): > 100 µM
TGI (CCRF-CEM leukemia): > 100 µM
TGI (OVCAR-8 ovarian): > 100 µM
TGI (MDA-MB-435): > 100 µM
TGI (SK-MEL-2 melanoma): > 100 µM
TGI (MDA-N): > 100 µM
TGI (MALME-3M melanoma): > 100 µM

C=CCNC(=S)N=Nc1c(O)[nH]c2ccc([N+](=O)[O-])cc12
TGI (SK-OV-3 ovarian): > 100 µM
TGI (SW-620 colon): > 100 µM
TGI (MOLT-4 leukemia): > 100 µM
TGI (BT-549 breast): > 100 µM
TGI (CCRF-CEM leukemia): 41.5 µM
TGI (OVCAR-8 ovarian): > 100 µM
TGI (MDA-MB-435): > 100 µM
TGI (SK-MEL-2 melanoma): > 100 µM
TGI (MDA-N): > 100 µM
TGI (MALME-3M melanoma): > 100 µM

Clc1ccc(CSCCc2ccncc2)cc1Cl
TGI (SK-OV-3 ovarian): 59.4 µM
TGI (SW-620 colon): 46.6 µM
TGI (MOLT-4 leukemia): 38.1 µM
TGI (BT-549 breast): 42.6 µM
TGI (CCRF-CEM leukemia): 44.7 µM
TGI (OVCAR-8 ovarian): 46 µM
TGI (MDA-MB-435): 49.5 µM
TGI (SK-MEL-2 melanoma): 30.8 µM
TGI (MDA-N): 46.5 µM
TGI (MALME-3M melanoma): 42.4 µM

Nc1ccc(-c2nc3ccccc3s2)cc1C(F)(F)F
TGI (SK-OV-3 ovarian): 30.4 µM
TGI (SW-620 colon): 35.3 µM
TGI (MOLT-4 leukemia): 52.4 µM
TGI (BT-549 breast): 26.4 µM
TGI (CCRF-CEM leukemia): 95 µM
TGI (OVCAR-8 ovarian): 43.1 µM
TGI (MDA-MB-435): 30.2 µM
TGI (SK-MEL-2 melanoma): 31.3 µM
TGI (MDA-N): 26.4 µM
TGI (MALME-3M melanoma): 29.4 µM

COC(=O)CCc1cc(OC)c2c(c1)[C@H](C(=O)OC)[C@@H](c1ccc(O)c(OC)c1)O2
TGI (SK-OV-3 ovarian): > 100 µM
TGI (SW-620 colon): > 100 µM
TGI (MOLT-4 leukemia): > 100 µM
TGI (BT-549 breast): > 100 µM
TGI (CCRF-CEM leukemia): > 100 µM
TGI (OVCAR-8 ovarian): > 100 µM
TGI (MDA-MB-435): 39.5 µM
TGI (SK-MEL-2 melanoma): 84.6 µM
TGI (MDA-N): 44.6 µM
TGI (MALME-3M melanoma): > 100 µM

O=C1NCC(NC(=O)C(F)(F)F)c2c(Br)sc(Br)c21 (stereo not given)
TGI (SK-OV-3 ovarian): > 100 µM
TGI (SW-620 colon): > 100 µM
TGI (MOLT-4 leukemia): > 100 µM
TGI (BT-549 breast): > 100 µM
TGI (CCRF-CEM leukemia): > 100 µM
TGI (OVCAR-8 ovarian): > 100 µM
TGI (MDA-MB-435): > 100 µM
TGI (SK-MEL-2 melanoma): > 100 µM
TGI (MDA-N): > 100 µM
TGI (MALME-3M melanoma): > 100 µM

COC(=O)c1c2c(cc3c1CCC3)CCC2
TGI (SK-OV-3 ovarian): > 100 µM
TGI (SW-620 colon): > 100 µM
TGI (MOLT-4 leukemia): > 100 µM
TGI (BT-549 breast): > 100 µM
TGI (CCRF-CEM leukemia): 53.3 µM
TGI (OVCAR-8 ovarian): > 100 µM
TGI (MDA-MB-435): > 100 µM
TGI (SK-MEL-2 melanoma): 64.3 µM
TGI (MDA-N): > 100 µM
TGI (MALME-3M melanoma): > 100 µM
